# According to patent US12421317B2, “Polynucleotides encoding anti-glucagon-like peptide 1 receptor (GLP1R) antagonist antibodies” (Regeneron Pharmaceuticals, Inc., priority 2020, dated 2025):
# Marks after values point to notes of the source that are not given here.
# Tested on: GLP1R humanized mice
# Test: GLP1-induced hypoglycemia (Exendin-4 challenge) in GLP1R humanized mice, glucose AUC (Example 6)
# Assay type: in vivo
# Conditions: for Normalized glucose AUC during Exendin-4 challenge: Exendin-4 at 0-min, test article 10 mg/kg s.c., mean
# Procedure: Thirty-nine, 2.5-month-old male GLP1R humanized mice were randomly divided into one group of sixteen mice, two groups of eight mice, and one group of seven mice. On Day 0, the group of sixteen animals (Groups 1 and 2) were administered subcutaneously (s.c.) with a hIgG4 isotype control antibody (referred to as isotype control, dose of 10 mg/kg). […] The group of seven animals (Group 5) was administered s.c. (dose of 10 mg/kg) with mAb36986. […] […] At the same time point, animals in Groups 3, 4, and 5 were administered i.p. with Exendin-4 (dose of 0.01 mg/kg). For all animals, blood glucose levels were measured with a handheld glucometer immediately before and 15, 30, 60, and 120 minutes after saline or Exendin-4 administration. All animals remained in their assigned groups until the study completion on Day 80. With animals in Groups 1, 2, 4, and 5, the Exendin-4 challenge was repeated on Days 3, 7, 15, 21, 29, 65, and 80.
# The AUC value of each animal at each challenge was normalized to the mean AUC value of Group 1. Statistical analyses were performed by one-way ANOVA followed by Bonferroni post-hoc tests, comparing Groups 1, 3, 4, or 5 to Group 2, for each challenge.
substance,measurement,setting,value
"Exendin-3 (9-39) amide [Exendin-9, reference compound]",correction of Exendin-4 induced hypoglycemia,10 mg/kg s.c.,"correction of Exendin-4 induced hypoglycemia when Exendin-4 challenge was performed 30 minutes post Exendin-9 administration, but not when the challenge was performed 4.5 or 24 hours post Exendin-9 administration"
same,Normalized glucose AUC during Exendin-4 challenge,0.5 h post test article,101.3**** % of Group 1
same,Normalized glucose AUC during Exendin-4 challenge,4.5 h post test article,70.1 % of Group 1
same,Normalized glucose AUC during Exendin-4 challenge,24 h post test article,74.1 % of Group 1
